Data taken from ChEMBL document CHEMBL1141655, “Structure-activity relationships of Bak derived peptides: affinity and specificity modulations by amino acid replacement” (Eur J Med Chem, 2008).
pEC50: −log10 of the molar value. Non-standard residues stand in square brackets, D forms with d. Residues, ends and D or L forms follow the SMILES beside them. 2Nal = N[C@@H](Cc1ccc2ccccc2c1)C(=O)O

Biological target: Bcl-2-like protein 1 (Homo sapiens, UniProt Q07817)
Assay: Binding affinity to recombinant Bcl-XL expressed in Escherichia coli BL21 by fluorescence polarization assay

Bcl-2-like protein 1, sequence (Q07817 whole entry): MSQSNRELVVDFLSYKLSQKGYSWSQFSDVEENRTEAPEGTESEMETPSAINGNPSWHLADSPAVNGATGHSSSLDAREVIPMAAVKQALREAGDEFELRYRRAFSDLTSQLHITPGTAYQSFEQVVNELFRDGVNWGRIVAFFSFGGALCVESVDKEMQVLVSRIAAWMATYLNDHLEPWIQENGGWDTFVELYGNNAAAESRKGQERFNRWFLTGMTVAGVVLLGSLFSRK

SMILES | pEC50
CC[C@H](C)[C@H](NC(=O)[C@H](C)NC(=O)[C@H](CC(C)C)NC(=O)[C@H](CCC(N)=O)NC(=O)[C@H](CCCN=C(N)N)NC(=O)CNC(=O)[C@@H](NC(=O)[C@H](CCC(N)=O)NC(=O)CN)C(C)C)C(=O)N[C@H](C(=O)NCC(=O)N[C@@H](CC(=O)O)C(=O)N[C@@H](CC(=O)O)C(=O)N[C@@H](Cc1ccccc1)C(=O)N[C@@H](CC(N)=O)C(=O)N[C@@H](CCCN=C(N)N)C(=O)O)[C@@H](C)CC | 7.27
CC[C@H](C)[C@H](NC(=O)[C@H](C)NC(=O)[C@H](CC(C)C)NC(=O)[C@H](CCC(N)=O)NC(=O)[C@H](CCCNC(=N)N)NC(=O)CNC(=O)[C@H](C)NC(=O)[C@H](CCC(N)=O)NC(=O)CN)C(=O)N[C@H](C(=O)NCC(=O)N[C@@H](CC(=O)O)C(=O)N[C@@H](CC(=O)O)C(=O)N[C@H](C(=O)N[C@@H](CC(N)=O)C(=O)N[C@@H](CCCNC(=N)N)C(=O)O)[C@@H](C)CC)[C@@H](C)CC | 4.82
CC[C@H](C)[C@H](NC(=O)[C@H](C)NC(=O)[C@H](CC(C)C)NC(=O)[C@H](CCC(N)=O)NC(=O)[C@H](CCCN=C(N)N)NC(=O)CNC(=O)[C@H](Cc1ccccc1)NC(=O)[C@H](CCC(N)=O)NC(=O)CN)C(=O)N[C@H](C(=O)NCC(=O)N[C@@H](CC(=O)O)C(=O)N[C@@H](CC(=O)O)C(=O)N[C@H](C(=O)N[C@@H](CC(N)=O)C(=O)N[C@@H](CCCN=C(N)N)C(=O)O)[C@@H](C)CC)[C@@H](C)CC | 6.52
CC[C@H](C)[C@H](NC(=O)[C@H](C)NC(=O)[C@H](Cc1ccccc1)NC(=O)[C@H](CCC(N)=O)NC(=O)[C@H](CCCN=C(N)N)NC(=O)CNC(=O)[C@@H](NC(=O)[C@H](CCC(N)=O)NC(=O)CN)C(C)C)C(=O)N[C@H](C(=O)NCC(=O)N[C@@H](CC(=O)O)C(=O)N[C@@H](CC(=O)O)C(=O)N[C@H](C(=O)N[C@@H](CC(N)=O)C(=O)N[C@@H](CCCN=C(N)N)C(=O)O)[C@@H](C)CC)[C@@H](C)CC | 6.39
CC[C@H](C)[C@H](NC(=O)[C@H](C)NC(=O)[C@H](CC(C)C)NC(=O)[C@H](CCC(N)=O)NC(=O)[C@H](CCCNC(=N)N)NC(=O)CNC(=O)[C@@H](NC(=O)[C@H](CCC(N)=O)NC(=O)CN)C(C)C)C(=O)N[C@@H](Cc1ccc([N+](=O)[O-])cc1)C(=O)NCC(=O)N[C@@H](CC(=O)O)C(=O)N[C@@H](CC(=O)O)C(=O)N[C@H](C(=O)N[C@@H](CC(N)=O)C(=O)N[C@@H](CCCNC(=N)N)C(=O)O)[C@@H](C)CC | 5.83
CC[C@H](C)[C@H](NC(=O)[C@H](C)NC(=O)[C@H](CC(C)C)NC(=O)[C@H](CCC(N)=O)NC(=O)[C@H](CCCNC(=N)N)NC(=O)CNC(=O)[C@@H](NC(=O)[C@H](CCC(N)=O)NC(=O)CN)C(C)C)C(=O)N[C@H](C(=O)NCC(=O)N[C@@H](CC(=O)O)C(=O)N[C@@H](CC(=O)O)C(=O)N[C@@H](Cc1cccc(Cl)c1)C(=O)N[C@@H](CC(N)=O)C(=O)N[C@@H](CCCNC(=N)N)C(=O)O)[C@@H](C)CC | 7.25
CC[C@H](C)[C@H](NC(=O)[C@H](C)NC(=O)[C@H](Cc1ccc2ccccc2c1)NC(=O)[C@H](CCC(N)=O)NC(=O)[C@H](CCCNC(=N)N)NC(=O)CNC(=O)[C@@H](NC(=O)[C@H](CCC(N)=O)NC(=O)CN)C(C)C)C(=O)N[C@H](C(=O)NCC(=O)N[C@@H](CC(=O)O)C(=O)N[C@@H](CC(=O)O)C(=O)N[C@@H](Cc1ccccc1)C(=O)N[C@@H](CC(N)=O)C(=O)N[C@@H](CCCNC(=N)N)C(=O)O)[C@@H](C)CC (H-GQVGRQ[2Nal]AIIGDDFNR-OH) | 7.27
CC[C@H](C)[C@H](NC(=O)[C@H](C)NC(=O)[C@H](CC(C)C)NC(=O)[C@H](CCC(N)=O)NC(=O)[C@H](CCCN=C(N)N)NC(=O)CNC(=O)[C@@H](NC(=O)[C@H](CCC(N)=O)NC(=O)CN)C(C)C)C(=O)N[C@H](C(=O)NCC(=O)N[C@@H](CC(=O)O)C(=O)N[C@@H](CC(=O)O)C(=O)N[C@@H](Cc1ccc(O)cc1)C(=O)N[C@@H](CC(N)=O)C(=O)N[C@@H](CCCN=C(N)N)C(=O)O)[C@@H](C)CC | 6.80
